Laboratory results published in patent US11141413B2, “Method of treating renal cell carcinoma using N-(4-(6,7-dimethoxyquinolin-4-yloxy)phenyl)-N′-(4-fluorophenyl)cyclopropane-1,1-dicarboxamide, (2S)-hydroxybutanedioate” (Exelixis, Inc., priority 2016, dated 2021).

Test system: bone metastases in advanced RCC patients
Experiment: METEOR bone endpoints: bone scan response, skeletal-related events, bone markers
Assay type: in vivo, human
Settings: for C-terminal cross-lined telopeptides of type 1 collagen (CTx), median / N-terminal propeptide of type 1 collagen (P1NP), median: patients with bone metastases at baseline; for Bone scan response (BSR) per IRC: patients with bone lesions at baseline by bone scan, BSR = ≥30% decrease in BSLA
Text: The study design in depicted in FIG. 8.3. Clinical outcome measures included PFS, ORR, overall survival (OS), and safety. Exploratory endpoints included bone scan response (BSR) in patients with bone scan lesions at baseline (Brown Nucl Med Commun 2012 33:384), incidence of skeletal-related events (SRE), and changes in bone turnover markers. The subgroup of patients with bone metastases (N=142) was defined by the presence of bone metastases at baseline by CT or MRI per IRC. Bone scan response (BSR) was evaluated for patients who had bone lesions detected by technetium bone scans at baseline (N=178).
Participants were screened via CT or MRI every 8 weeks for the first 12-months post-randomization, and then every 12 weeks thereafter. Technetium bone scans were performed at screening (all patients), every 16 weeks for the first 12 months post-randomization (only in patients with bone lesions at baseline), and then every 23 weeks thereafter. Skeletal-related events (SREs) were assessed and consisted of pathological fractures, spinal cord compression, surgery to bone, and external radiation therapy to bone. Serum bone marker analyses consisted on N-terminal propeptide of type I collagen (PINP), and the bone resorption marker c-terminal cross-lined telopeptides of type I collagen (CTx), which were collected prior to the first dose at week 1, at week 5, and at week 9.
Bone scan responses per IRC in patients with bone scan lesions were performed using computer-assisted detection of bone scan lesions. An IRC was used to quantitate bone scan tumor burden using computer-assisted detection (CAD) to measure lesions and defined criteria for response. Bone scan lesion area (BSLA), which represents the number of pixels with radiotracer uptake above the threshold for normal bone, was also calculated. BSR was defined as greater than or equal to 30% decrease in BSLA.

[1] = patients with an SRE pre-randomization
[2] = prior history of SREs, Pts with Bone Metastases
[3] = prior history of SREs, Pts without Bone Metastases

Row | SMILES | C-terminal cross-lined telopeptides of type 1 collagen (CTx), median (Baseline) | N-terminal propeptide of type 1 collagen (P1NP), median (Baseline) | Post-Randomization SREs, % (Pts with Bone Metastases) | Post-randomization SRE: External radiation therapy to bone, % (Pts with Bone Metastases) | Post-randomization SRE: Pathologic fractures, % (Pts with Bone Metastases) | Post-randomization SRE: Spinal cord compression, % (Pts with Bone Metastases) | Post-randomization SRE: Surgery to bone, % (Pts with Bone Metastases) | Time to first SRE, median (Pts with Bone Metastases) | Post-Randomization SREs, % (Pts without Bone Metastases) | Post-randomization SRE: External radiation therapy to bone, % (Pts without Bone Metastases) | Post-randomization SRE: Pathologic fractures, % (Pts without Bone Metastases) | Post-randomization SRE: Spinal cord compression, % (Pts without Bone Metastases) | Post-randomization SRE: Surgery to bone, % (Pts without Bone Metastases) | Time to first SRE, median (Pts without Bone Metastases) | C-terminal cross-lined telopeptides of type 1 collagen (CTx), median (Week 5) | N-terminal propeptide of type 1 collagen (P1NP), median (Week 5) | Cases of spinal cord compression [1] | Incidence of post-randomization SREs [1] | Bone scan response (BSR) per IRC | Post-randomization SRE: External radiation therapy to bone, % [2] | also measured
1 | COc1cc2nccc(Oc3ccc(NC(=O)C4(C(=O)Nc5ccc(F)cc5)CC4)cc3)c2cc1OC [cabozantinib] | 0.40 µg/L | 48.5 µg/L | (21) % | (9) % | (12) % | (3) % | (8) % | 3.45 months | (9) % | (7) % | (3) % | (1) % | (2) % | 3.93 months | 0.19 µg/L | 38.9 µg/L | 0 | 16% | 18% | (9) % | Reductions in bone markers (cabozantinib vs everolimus): greater; Bone scan response (BSR) per IRC (listed as Cabozantinib): 18 (11, 27) %; Post-randomization SRE: Pathologic fractures, % [2]: (14) %; Post-randomization SRE: Surgery to bone, % [2]: (9) %; SREs in patients with a prior history of SREs, % [2]: (23) %; Time to first SRE, median [2]: 3.25 months; Post-randomization SRE: External radiation therapy to bone, % [3]: (8) %; Post-randomization SRE: Pathologic fractures, % [3]: (6) %; Post-randomization SRE: Surgery to bone, % [3]: (4) %; SREs in patients with a prior history of SREs, % [3]: (10) %; Time to first SRE, median [3]: 2.76 months; Cases of spinal cord compression (randomized patients): 4; Patients with at least one skeletal-related event (SRE) (randomized patients): 12%
2 | CO[C@H]1C[C@@H]2CC[C@@H](C)[C@@](O)(O2)C(=O)C(=O)N2CCCC[C@H]2C(=O)O[C@H]([C@H](C)C[C@@H]2CC[C@@H](OCCO)[C@H](OC)C2)CC(=O)[C@H](C)/C=C(\C)[C@@H](O)[C@@H](OC)C(=O)[C@H](C)C[C@H](C)/C=C/C=C/C=C/1C [everolimus] | 0.43 µg/L | 49.9 µg/L | (29) % | (25) % | (5) % | (6) % | (8) % | 2.53 months | (10) % | (7) % | (3) % | (2) % | (2) % | 4.27 months | 0.43 µg/L | 44.1 µg/L | 5 | 34% | 10% | (28) % | Bone scan response (BSR) per IRC (listed as Everolimus): 10 (4, 19) %; Post-randomization SRE: Pathologic fractures, % [2]: (5) %; Post-randomization SRE: Spinal cord compression, % [2]: (5) %; Post-randomization SRE: Surgery to bone, % [2]: (7) %; SREs in patients with a prior history of SREs, % [2]: (33) %; Time to first SRE, median [2]: 2.41 months; Post-randomization SRE: External radiation therapy to bone, % [3]: (23) %; Post-randomization SRE: Pathologic fractures, % [3]: (13) %; Post-randomization SRE: Spinal cord compression, % [3]: (6) %; Post-randomization SRE: Surgery to bone, % [3]: (9) %; SREs in patients with a prior history of SREs, % [3]: (36) %; Time to first SRE, median [3]: 4.27 months; Cases of spinal cord compression (randomized patients): 8; Patients with at least one skeletal-related event (SRE) (randomized patients): 14%
